Laboratory results: patent US20240384268A1, “Oligonucleotides” (Hudson Institute of Medical Research, priority 2021, published 2024)
In the oligonucleotide strings, read from the 5' end, every base follows the letter of its sugar. An asterisk marks phosphorothioate; unmarked linkages are phosphodiester. Other units and linkages are bracketed, terminal groups are in braces. A string of capitals states the bases alone. d = 2'-deoxy (DNA); m = 2'-O-methyl

Molecular target: T1, human TLR7 (Homo sapiens, UniProt Q9NYK1)
T1 construct: HA; host or cells: 293XL-hTLR7-HA (HEK293)
T1 sequence (Q9NYK1 27-1049): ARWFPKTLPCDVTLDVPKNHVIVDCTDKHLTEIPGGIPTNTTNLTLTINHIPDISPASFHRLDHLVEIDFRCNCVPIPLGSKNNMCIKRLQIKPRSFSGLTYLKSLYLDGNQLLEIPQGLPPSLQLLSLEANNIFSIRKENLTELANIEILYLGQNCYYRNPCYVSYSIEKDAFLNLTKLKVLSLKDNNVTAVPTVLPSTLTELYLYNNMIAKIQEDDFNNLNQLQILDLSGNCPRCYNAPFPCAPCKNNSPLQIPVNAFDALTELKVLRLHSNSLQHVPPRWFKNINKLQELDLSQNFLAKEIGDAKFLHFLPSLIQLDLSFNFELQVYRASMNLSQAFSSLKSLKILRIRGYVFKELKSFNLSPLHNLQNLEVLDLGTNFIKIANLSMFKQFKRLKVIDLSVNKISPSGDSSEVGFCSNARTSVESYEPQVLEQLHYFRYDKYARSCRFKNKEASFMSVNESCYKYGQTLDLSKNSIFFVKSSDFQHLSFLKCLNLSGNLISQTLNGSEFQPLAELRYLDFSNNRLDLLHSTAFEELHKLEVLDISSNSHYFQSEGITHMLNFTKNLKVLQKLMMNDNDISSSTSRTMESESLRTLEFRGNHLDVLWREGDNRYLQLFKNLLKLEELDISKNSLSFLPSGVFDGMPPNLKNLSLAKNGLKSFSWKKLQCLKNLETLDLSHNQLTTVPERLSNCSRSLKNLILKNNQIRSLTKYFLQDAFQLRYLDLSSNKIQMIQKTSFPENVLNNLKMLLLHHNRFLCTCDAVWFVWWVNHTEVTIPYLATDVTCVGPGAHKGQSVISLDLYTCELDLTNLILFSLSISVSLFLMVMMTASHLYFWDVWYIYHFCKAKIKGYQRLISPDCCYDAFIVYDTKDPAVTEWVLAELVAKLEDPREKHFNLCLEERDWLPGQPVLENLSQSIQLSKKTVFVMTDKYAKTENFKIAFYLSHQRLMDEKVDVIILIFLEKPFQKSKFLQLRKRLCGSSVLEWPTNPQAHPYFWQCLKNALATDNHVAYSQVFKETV
Test: HEK-TLR7 NF-κB-luciferase reporter, R848 stimulation
Format: cell-based
Conditions: for TLR7-100 nM: averaged NF-κB-Luciferase relative to R848: HEK-TLR7, 100 nM ASO, percentage of R848 without ASO (Alharbi et al., 2020); for TLR7 100 nM: MOE-modified ASO at 100 nM; for TLR7 100 nM / TLR7 500 nM: averaged NF-κB-Luciferase relative to R848 condition; for TLR7 500 nM: MOE-modified ASO at 500 nM

Substance | TLR7-100 nM: averaged NF-κB-Luciferase relative to R848 | TLR7 100 nM | TLR7 500 nM
mG*mG*mG*mU*mC*T*C*C*T*C*C*A*C*A*C*mC*mC*mU*mU*mC (GGGUCTCCTCCACACCCUUC; antisense; sugars from the 5' end m5 d10 m5, all phosphorothioate, methylation of C not given here) [[LINC-PINT]128] | 21.47% | – | –
mG*mG*mU*mG*mG*C*C*A*C*A*G*G*C*A*A*mC*mG*mU*mC*mA (GGUGGCCACAGGCAACGUCA; antisense; sugars from the 5' end m5 d10 m5, all phosphorothioate, methylation of C not given here) [[CDKN2B-AS1]2196] | 39.07% | – | –
GGGTATCGAAAGAGTCTGGA (antisense; 2'-MOE modified, pattern not given here) [EGFR-3908 MOE] | – | 0.350 | 0.079
mC*mA*mC*mU*mG*T*A*T*T*T*T*A*T*T*A*mC*mA*mG*mA*mA (mC*mA*mC*mU*mG*dT*dA*dT*dT*dT*dT*dA*dT*dT*dA*mC*mA*mG*mA*mA; antisense) [[LINC-PINT]2990] | 58.13% | – | –
mA*mA*mA*mG*mA*T*T*A*T*C*T*T*C*T*T*mU*mU*mA*mA*mU (mA*mA*mA*mG*mA*dT*dT*dA*dT*dC*dT*dT*dC*dT*dT*mU*mU*mA*mA*mU) [[CDKN2B-AS1]2132] | 49.28% | – | –
mU*mG*mG*mC*mG*T*A*G*T*T*T*C*T*C*T*mU*mC*mC*mU*mC (mU*mG*mG*mC*mG*dT*dA*dG*dT*dT*dT*dC*dT*dC*dT*mU*mC*mC*mU*mC; antisense) [[LINC-PINT]937.1] | 32.81% | – | –
mU*mC*mU*mC*mU*C*T*G*G*T*C*C*C*A*T*mC*mC*mC*mU*mU (mU*mC*mU*mC*mU*dC*dT*dG*dG*dT*dC*dC*dC*dA*dT*mC*mC*mC*mU*mU; antisense) [[LINC-PINT]110] | 43.82% | – | –
mU*mC*mU*mC*mC*A*T*G*T*C*C*C*A*G*G*mC*mC*mU*mC*mC (mU*mC*mU*mC*mC*dA*dT*dG*dT*dC*dC*dC*dA*dG*dG*mC*mC*mU*mC*mC; antisense) [[CDKN2B-AS1]2230] | 43.45% | – | –
mC*mC*mU*mU*mC*T*G*C*T*G*C*C*A*A*G*mC*mC*mC*mC*mA (mC*mC*mU*mU*mC*dT*dG*dC*dT*dG*dC*dC*dA*dA*dG*mC*mC*mC*mC*mA; antisense) [[LINC-PINT]94] | 85.57% | – | –
mG*mU*mC*mC*mC*A*G*G*C*C*T*C*C*A*G*mU*mG*mU*mC*mU (mG*mU*mC*mC*mC*dA*dG*dG*dC*dC*dT*dC*dC*dA*dG*mU*mG*mU*mC*mU; antisense) [[CDKN2B-AS1]2223] | 19.01% | – | –
mA*mG*mA*mA*mA*G*A*A*G*C*A*A*A*G*A*mU*mU*mC*mA*mA (AGAAAGAAGCAAAGAUUCAA; sugars from the 5' end m5 d10 m5, all phosphorothioate, methylation of C not given here) [[CDKN2B-AS1]1519] | 42.99% | – | –
mC*mA*mG*mG*mC*C*T*C*C*A*G*T*G*T*C*mU*mU*mC*mU*mC (mC*mA*mG*mG*mC*dC*dT*dC*dC*dA*dG*dT*dG*dT*dC*mU*mU*mC*mU*mC; antisense) [[CDKN2B-AS1]2219] | 54.11% | – | –
AGTCGTAGTTGCTTCCTAAC (antisense; 2'-MOE modified, pattern not given here) [MB21D1-1181 MOE] | – | 0.494 | 0.228
CGGCATCCACCACGTCGTCC (antisense; 2'-MOE modified, pattern not given here) [EGFR-3267 MOE] | – | 0.485 | 0.202
CGGAGGTCTTGGCTTCGTGG (antisense; 2'-MOE modified, pattern not given here) [MB21D1-525 MOE] | – | 0.505 | 0.138
mC*mC*mU*mA*mG*A*A*A*G*A*A*G*C*A*A*mA*mG*mA*mU*mU (mC*mC*mU*mA*mG*dA*dA*dA*dG*dA*dA*dG*dC*dA*dA*mA*mG*mA*mU*mU) [[CDKN2B-AS1]1522] | 57.20% | – | –
mA*mG*mG*mC*mC*T*C*C*A*G*T*G*T*C*T*mU*mC*mU*mC*mC (mA*mG*mG*mC*mC*dT*dC*dC*dA*dG*dT*dG*dT*dC*dT*mU*mC*mU*mC*mC; antisense) [[CDKN2B-AS1]2218] | 44.73% | – | –

Substance | TLR7-100 nM: averaged NF-κB-Luciferase relative to R848 | TLR7 100 nM | TLR7 500 nM
mC*mC*mA*mU*mG*T*C*C*C*A*G*G*C*C*T*mC*mC*mA*mG*mU (CCAUGTCCCAGGCCTCCAGU; sugars from the 5' end m5 d10 m5, all phosphorothioate, methylation of C not given here) [[CDKN2B-AS1]2227] | 41.39% | – | –
TGGGCTGGAATCCGAGTTAT (antisense; 2'-MOE modified, pattern not given here) [EGFR-4705 MOE] | – | 0.270 | 0.095
mG*mU*mC*mA*mA*A*C*C*T*A*G*A*A*A*G*mA*mA*mG*mC*mA (mG*mU*mC*mA*mA*dA*dC*dC*dT*dA*dG*dA*dA*dA*dG*mA*mA*mG*mC*mA; antisense) [[CDKN2B-AS1]1528] | 23.64% | – | –
mC*mC*mC*mU*mA*A*T*G*C*T*T*T*C*C*T*mC*mU*mC*mC*mA (mC*mC*mC*mU*mA*dA*dT*dG*dC*dT*dT*dT*dC*dC*dT*mC*mU*mC*mC*mA; antisense) [[LINC-PINT1877 KL] | 58.39% | – | –
mC*mA*mU*mC*mC*C*T*T*C*T*G*C*T*G*C*mC*mA*mA*mG*mC (mC*mA*mU*mC*mC*dC*dT*dT*dC*dT*dG*dC*dT*dG*dC*mC*mA*mA*mG*mC; antisense) [[LINC-PINT]98] | 54.34% | – | –
mC*mU*mU*mC*mU*C*T*C*T*G*G*T*C*C*C*mA*mU*mC*mC*mC (mC*mU*mU*mC*mU*dC*dT*dC*dT*dG*dG*dT*dC*dC*dC*mA*mU*mC*mC*mC) [[LINC-PINT]112] | 56.20% | – | –
mC*mA*mA*mG*mC*C*C*C*A*G*C*G*T*T*C*mC*mU*mC*mC*mG (mC*mA*mA*mG*mC*dC*dC*dC*dA*dG*dC*dG*dT*dT*dC*mC*mU*mC*mC*mG; antisense) [[LINC-PINT]83.1] | 45.20% | – | –
TTTGCACACTTCGTACCCAA (antisense; 2'-MOE modified, pattern not given here) [CAMSAP1-4916 MOE] | – | 0.296 | 0.118
mU*mU*mC*mU*mC*T*C*T*G*G*T*C*C*C*A*mU*mC*mC*mC*mU (mU*mU*mC*mU*mC*dT*dC*dT*dG*dG*dT*dC*dC*dC*dA*mU*mC*mC*mC*mU; antisense) [[LINC-PINT]111] | 26.22% | – | –
mG*mU*mC*mU*mC*C*T*C*C*A*C*A*C*C*C*mU*mU*mC*mU*mC (mG*mU*mC*mU*mC*dC*dT*dC*dC*dA*dC*dA*dC*dC*dC*mU*mU*mC*mU*mC; antisense) [[LINC-PINT]126] | 25.01% | – | –
ATGCCATCCACTTGATAGGC (antisense; 2'-MOE modified, pattern not given here) [EGFR-2874 MOE] | – | 0.668 | 0.390
mC*mC*mU*mU*mC*T*C*T*C*T*G*GT*C*C*mC*mA*mU*mC*mC (CCUUCTCTCTGGTCCCAUCC; antisense; chemistry not fully specified) [[LINC-PINT]113] | 60.90% | – | –
mG*mG*mU*mC*mU*C*C*T*C*C*A*C*A*C*C*mC*mU*mU*mC*mU (mG*mG*mU*mC*mU*dC*dC*dT*dC*dC*dA*dC*dA*dC*dC*mC*mU*mU*mC*mU; antisense) [[LINC-PINT]127] | 23.66% | – | –
mU*mC*mC*mC*mA*A*C*T*C*T*T*C*T*A*A*mC*mU*mC*mG*mU (mU*mC*mC*mC*mA*dA*dC*dT*dC*dT*dT*dC*dT*dA*dA*mC*mU*mC*mG*mU; antisense) [[LINC-PINT]1284 KL] | 40.79% | – | –
GTCCAAGATCAGCAGTCTCA (antisense; 2'-MOE modified, pattern not given here) [CTNN2B-2341 MOE] | – | 0.298 | 0.120
mA*mA*mU*mA*mU*C*T*G*C*T*G*C*C*C*A*mC*mC*mU*mU*mC (mA*mA*mU*mA*mU*dC*dT*dG*dC*dT*dG*dC*dC*dC*dA*mC*mC*mU*mU*mC; antisense) [[CDKN2B-AS1]832] | 43.66% | – | –
